Assay results as given in patent US20250334536A1, “MODIFIED OXID[…] ITS APPLICATION” (National Yang Ming Chiao Tung University, priority 2024, published 2025).
Read-outs that look alike come from different tables or passages of the source.

Legend:
[1] = test system: glucose oxidase nanoparticles; details: comparison value; cited from earlier work
[2] = test system: nanoparticle composition (enzyme nanoparticles of modified glucose oxidase of the first type crosslinked with glutaraldehyde); details: 35° C.
Protocol: Subsequently, an enzyme reaction solution containing the nanoparticle composition (concentration: 0.1 μg/mL), HRP (concentration: 0.4 μg/mL), and ABTS (concentration: 2.5 mM) is prepared. A volume of 400 μL of the reaction solution is transferred to a J-815 circular dichroism spectrometer for subsequent measurements, and a circulating constant-temperature water bath is activated to regulate the temperature to the desired setting. […] The change in absorbance over time is then recorded. Using the standard calibration curve of ABTS^+· and the rate of absorbance change, the corresponding concentration change of ABTS^+· is calculated. Based on the Michaelis-Menten kinetic model, various enzyme kinetic parameters are derived to evaluate the catalytic efficiency and stability of the nanoparticle composition under different temperature conditions.

[3] = test system: nanoparticle composition (enzyme nanoparticles of modified glucose oxidase of the first type crosslinked with glutaraldehyde)
Protocol: Ethanol is then gradually added (5 μl each time) until the solution becomes turbid. Glutaraldehyde is added, and the mixture is stirred at room temperature for 1.5 hours. After the reaction, the formed nanoparticles are collected by centrifugation (12,000 g, 15 minutes). The collected precipitate is resuspended in a mixture of ethanol and deionized water, followed by centrifugation under the same conditions. Subsequently, the nanoparticles are washed twice by centrifugation under the same conditions using ultrapure water. Finally, the precipitate is resuspended in deionized water and stored at 4° C. until use.
Subsequently, the catalytic efficiency of the nanoparticle composition is investigated using the 2,2′-azino-bis(3-ethylbenzothiazoline-6-sulfonic acid) (ABTS) assay. […] The generated H2O2 then reacts with HRP to oxidize the colorless ABTS into the green ABTS radical cation (ABTS^+·), enabling colorimetric analysis of enzyme activity.

[4] = test system: nanoparticle composition (enzyme nanoparticles of modified glucose oxidase of the first type crosslinked with glutaraldehyde); remark: listed apart in the source
Protocol: Deionized water solutions with varying pH values are then prepared, into which horseradish peroxidase (HRP, 0.4 μg/mL) and ABTS (2.5 mM) are added, followed by addition of the nanoparticle composition (0.1 μg/mL). 1 mL of the resulting mixture is placed in a UV-Vis spectrophotometer (model V670, JASCO), and the detection wavelength is set to 740 nm, corresponding to the characteristic absorption wavelength of ABTS^+·. Subsequently, glucose is added, and the time-dependent absorbance is measured. Using the standard calibration curve of ABTS^+· and the slope of the reaction rate, the time-dependent concentration of ABTS^+· is calculated. Enzyme kinetic parameters are then determined based on the Michaelis-Menten model, with further analysis performed using the Lineweaver-Burk model to evaluate the steady-state enzymatic behavior of the nanoparticle composition under different pH conditions.

[5] = nanoparticle composition, substrate glucose

In the case of `OC[C@H]1OC(O)[C@H](O)[C@@H](O)[C@@H]1O` (some centres unmarked) [glucose], the “catalytic efficiency (Kcat/KM)” value [1] is listed as 676 M⁻¹ s⁻¹, the Kcat/KM [2] is listed as “approximately 6.0×10^4 s^−1·M^−1” and the “catalytic efficiency (Kcat/KM), times higher than that of glucose oxidase nanoparticles” value ([3]; nanoparticle composition vs glucose oxidase nanoparticles (676 M^−1·s^−1)) is listed as “approximately 66 times”. The “increase of catalytic efficiency (Kcat/KM) compared to modified glucose oxidase” value ([3]; nanoparticle composition vs modified glucose oxidase) was “more than 300%”, the Kcat [3, 5] was 421.87 s⁻¹ and the Kcat/KM [3, 5] was 45200 M⁻¹ s⁻¹. The Km [3, 5] was 9.33 mM, the VMax [3, 5] was 0.2646 μM^s − 1 and the Kcat/KM ([4]; pH 5) was 5000 M⁻¹ s⁻¹. The Kcat/KM ([4]; pH 7) was “approximately 4.8×10^4 s^−1·M^−1” and the Kcat/KM ([4]; pH 9) was 10000 M⁻¹ s⁻¹.
